Reference: PubChem BioAssay AID248 (DTP/NCI, 2004)
Several values for one entry are separate records, joined by “and”; a condition that tells them apart may be missing. Identical values can stand only once. Toxic doses and inconclusive results are not listed.

System: L1210 leukemia ip in BDF1 mice, survival T/C
Assay: NCI In Vivo Anticancer Drug Screen. Data for tumor model L1210 Leukemia (intraperitoneal) in B6D2F1 (BDF1) mice
Details: endpoint: mean survival time, higher = longer survival
Method in brief: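 Mice bearing the transplanted tumor received compound or vehicle. Survival of the treated group was divided by that of the vehicle-treated control group to give the ratio.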

[1] = dose: 100.0 mg/kg/injection, schedule: Q01DX009 (ip), vehicle: Klucel (hydroxypropylcellulose) (HPC)
[2] = dose: 200.0 mg/kg/injection, schedule: Q01DX009 (ip), vehicle: Klucel (hydroxypropylcellulose) (HPC)
[3] = dose: 400.0 mg/kg/injection, schedule: Q01DX009 (ip), vehicle: Klucel (hydroxypropylcellulose) (HPC)
[4] = dose: 100.0 mg/kg/injection, schedule: Q01DX001 (ip), vehicle: carboxymethylcellulose (CMC)
[5] = dose: 200.0 mg/kg/injection, schedule: Q01DX001 (ip), vehicle: carboxymethylcellulose (CMC)
[6] = dose: 400.0 mg/kg/injection, schedule: Q01DX001 (ip), vehicle: carboxymethylcellulose (CMC)
[7] = dose: 25.0 mg/kg/injection, schedule: Q01DX009 (ip), vehicle: saline with Tween-80
[8] = dose: 50.0 mg/kg/injection, schedule: Q01DX009 (ip), vehicle: saline with Tween-80
[9] = dose: 100.0 mg/kg/injection, schedule: Q04DX003 (ip), vehicle: Klucel (hydroxypropylcellulose) (HPC)
[10] = dose: 200.0 mg/kg/injection, schedule: Q04DX003 (ip), vehicle: Klucel (hydroxypropylcellulose) (HPC)
[11] = dose: 100.0 mg/kg/injection, schedule: Q01DX001 (ip), vehicle: Klucel (hydroxypropylcellulose) (HPC)
[12] = dose: 200.0 mg/kg/injection, schedule: Q01DX001 (ip), vehicle: Klucel (hydroxypropylcellulose) (HPC)
[13] = dose: 400.0 mg/kg/injection, schedule: Q01DX001 (ip), vehicle: Klucel (hydroxypropylcellulose) (HPC)

O=C1OC(C(Cl)(Cl)Cl)OC1C(Cl)(Cl)Cl (stereo not given)
T/C (dose: 25.0 mg/kg/injection, schedule: Q01DX001 (ip), vehicle: saline with Tween-80): 98 % of control | T/C (dose: 50.0 mg/kg/injection, schedule: Q01DX001 (ip), vehicle: saline with Tween-80): 96 % of control | T/C (dose: 100.0 mg/kg/injection, schedule: Q01DX001 (ip), vehicle: saline with Tween-80): 93 % of control

Cc1cccc(C)c1NC(=S)N(CCC#N)C(C)C
T/C [1]: 103 % of control | T/C [2]: 106 % of control | T/C [3]: 96 % of control

O=C1c2cc(Br)ccc2-c2cc(Br)c([N+](=O)[O-])c(Br)c21
T/C [4]: 106 % of control | T/C [5]: 103 % of control | T/C [6]: 97 % of control

CC(=O)OC1CC2CC(C1C)C2(C)C (stereo not given)
T/C (dose: 12.5 mg/kg/injection, schedule: Q01DX009 (ip), vehicle: saline with Tween-80): 105 % of control | T/C [7]: 91 % of control | T/C [8]: 100 % of control

CC1CCOC(C)(CO)O1 (stereo not given)
T/C (dose: 100.0 mg/kg/injection, schedule: Q04DX002 (ip), vehicle: saline with Tween-80): 98 % of control | T/C (dose: 200.0 mg/kg/injection, schedule: Q04DX002 (ip), vehicle: saline with Tween-80): 95 % of control | T/C (dose: 400.0 mg/kg/injection, schedule: Q04DX002 (ip), vehicle: saline with Tween-80): 98 % of control

CCOC(Nc1cc(Cl)cc(Cl)c1)C(=O)c1ccccc1 (stereo not given)
T/C (dose: 100.0 mg/kg/injection, schedule: Q01DX001 (ip), vehicle: saline): 97 % of control | T/C (dose: 200.0 mg/kg/injection, schedule: Q01DX001 (ip), vehicle: saline): 91 % of control | T/C (dose: 400.0 mg/kg/injection, schedule: Q01DX001 (ip), vehicle: saline): 91 % of control

Cc1ccc(Cl)cc1NC(=O)c1cccc(C(=O)Nc2cc(Cl)ccc2C)c1
T/C (dose: 50.0 mg/kg/injection, schedule: Q01DX009 (ip), vehicle: Klucel (hydroxypropylcellulose) (HPC)): 91 % of control | T/C [1]: 100 % of control | T/C [9]: 98 % of control | T/C [2]: 91 % of control | T/C [10]: 88 % of control

N#CCCSCCC#N
T/C (dose: 7.5 mg/kg/injection, schedule: Q01DX009 (ip), vehicle: saline): 101 % of control | T/C (dose: 100.0 mg/kg/injection, schedule: Q04DX003 (ip), vehicle: saline with Tween-80): 105 % of control | T/C (dose: 100.0 mg/kg/injection, schedule: Q04DX003 (ip), vehicle: saline): 115 % of control | T/C (dose: 150.0 mg/kg/injection, schedule: Q01DX009 (ip), vehicle: saline): 93 % of control | T/C (dose: 200.0 mg/kg/injection, schedule: Q04DX003 (ip), vehicle: saline with Tween-80): 100 % of control | T/C (dose: 200.0 mg/kg/injection, schedule: Q04DX003 (ip), vehicle: saline): 101 % of control | T/C (dose: 300.0 mg/kg/injection, schedule: Q01DX009 (ip), vehicle: saline): 98 % of control | T/C (dose: 400.0 mg/kg/injection, schedule: Q04DX003 (ip), vehicle: saline with Tween-80): 108 % of control | T/C (dose: 400.0 mg/kg/injection, schedule: Q04DX003 (ip), vehicle: saline): 100 % of control

CC1(c2ccc3ccccc3c2)OC(=O)c2ccccc21 (stereo not given)
T/C [7]: 106 % of control | T/C [8]: 91 % of control

Cn1cc(Br)c2ccccc2c1=O
T/C (dose: 25.0 mg/kg/injection, schedule: Q04DX003 (ip), vehicle: Klucel (hydroxypropylcellulose) (HPC)): 87 % of control | T/C (dose: 50.0 mg/kg/injection, schedule: Q04DX003 (ip), vehicle: Klucel (hydroxypropylcellulose) (HPC)): 101 % of control | T/C [9]: 94 % of control and 124 % of control

CCC(=CCC1=C(O)c2ccccc2C(=O)C1=O)CC
T/C (dose: 25.0 mg/kg/injection, schedule: Q01DX009 (ip), vehicle: water): 120 % of control | T/C (dose: 50.0 mg/kg/injection, schedule: Q01DX009 (ip), vehicle: water): 97 % of control | T/C (dose: 100.0 mg/kg/injection, schedule: Q01DX001 (ip), vehicle: water): 103 % of control | T/C (dose: 100.0 mg/kg/injection, schedule: Q01DX009 (ip), vehicle: water): 100 % of control | T/C (dose: 200.0 mg/kg/injection, schedule: Q01DX009 (ip), vehicle: water): 94 % of control

O=C(OC1CC2CC1C1C=CCC21)c1ccc([N+](=O)[O-])cc1 (stereo not given)
T/C (dose: 44.0 mg/kg/injection, schedule: Q01DX001 (ip), vehicle: carboxymethylcellulose (CMC)): 94 % of control and 97 % of control | T/C (dose: 50.0 mg/kg/injection, schedule: Q01DX001 (ip), vehicle: carboxymethylcellulose (CMC)): 102 % of control | T/C (dose: 67.0 mg/kg/injection, schedule: Q01DX001 (ip), vehicle: carboxymethylcellulose (CMC)): 94 % of control and 100 % of control | T/C [11]: 104 % of control | T/C [4]: 94 % of control and 100 % of control | T/C [1]: 101 % of control | T/C (dose: 150.0 mg/kg/injection, schedule: Q01DX001 (ip), vehicle: carboxymethylcellulose (CMC)): 86 % of control and 91 % of control | T/C [12]: 93 % of control | T/C [5]: 90 % of control | T/C [2]: 104 % of control | T/C [13]: 104 % of control | T/C [6]: 96 % of control | T/C [3]: 101 % of control

CC(C)C(=O)[O][Sn]([CH3])([CH3])[CH3]
T/C (dose: 0.19 mg/kg/injection, schedule: Q01DX009 (ip), vehicle: Klucel (hydroxypropylcellulose) (HPC)): 90 % of control | T/C (dose: 0.39 mg/kg/injection, schedule: Q01DX009 (ip), vehicle: Klucel (hydroxypropylcellulose) (HPC)): 95 % of control | T/C (dose: 0.78 mg/kg/injection, schedule: Q01DX009 (ip), vehicle: Klucel (hydroxypropylcellulose) (HPC)): 93 % of control and 106 % of control | T/C (dose: 0.78 mg/kg/injection, schedule: Q04DX002 (ip), vehicle: Klucel (hydroxypropylcellulose) (HPC)): 95 % of control | T/C (dose: 1.56 mg/kg/injection, schedule: Q04DX002 (ip), vehicle: Klucel (hydroxypropylcellulose) (HPC)): 100 % of control | T/C (dose: 3.12 mg/kg/injection, schedule: Q04DX002 (ip), vehicle: Klucel (hydroxypropylcellulose) (HPC)): 103 % of control

O=NN(CCCl)C(=O)Nc1ccc(S(=O)(=O)c2ccc(NC(=O)N(CCCl)N=O)cc2)cc1
T/C (dose: 100.0 mg/kg/injection, schedule: Q01DX009 (ip), vehicle: carboxymethylcellulose (CMC)): 184 % of control | T/C (dose: 118.0 mg/kg/injection, schedule: Q01DX009 (ip), vehicle: carboxymethylcellulose (CMC)): 152 % of control | T/C (dose: 177.0 mg/kg/injection, schedule: Q01DX001 (ip), vehicle: carboxymethylcellulose (CMC)): 156 % of control | T/C (dose: 200.0 mg/kg/injection, schedule: Q01DX009 (ip), vehicle: carboxymethylcellulose (CMC)): 192 % of control | T/C (dose: 266.0 mg/kg/injection, schedule: Q01DX001 (ip), vehicle: carboxymethylcellulose (CMC)): 159 % of control | T/C (dose: 266.0 mg/kg/injection, schedule: Q01DX009 (ip), vehicle: carboxymethylcellulose (CMC)): 170 % of control | T/C (dose: 400.0 mg/kg/injection, schedule: Q01DX009 (ip), vehicle: carboxymethylcellulose (CMC)): 173 % of control and 186 % of control | T/C (dose: 600.0 mg/kg/injection, schedule: Q01DX001 (ip), vehicle: carboxymethylcellulose (CMC)): 161 % of control and 172 % of control

CCCCCCCCCCCCSCCCCSCCCCCCCCCCCC
T/C [11]: 93 % of control | T/C [12]: 89 % of control | T/C [13]: 91 % of control

Cc1ccc(S(=O)(=O)N=[N+]=[N-])cc1
T/C [11]: 95 % of control | T/C [1]: 107 % of control | T/C [9]: 95 % of control | T/C [12]: 105 % of control | T/C [2]: 107 % of control | T/C [10]: 104 % of control | T/C [13]: 100 % of control | T/C [3]: 105 % of control | T/C (dose: 400.0 mg/kg/injection, schedule: Q04DX003 (ip), vehicle: Klucel (hydroxypropylcellulose) (HPC)): 107 % of control

O=S1(=O)C=C(Cl)C2C3CC(C(Cl)C3Cl)C21 (stereo not given)
T/C (dose: 5.0 mg/kg/injection, schedule: Q01DX009 (ip), vehicle: carboxymethylcellulose (CMC)): 94 % of control | T/C (dose: 10.0 mg/kg/injection, schedule: Q01DX001 (ip), vehicle: carboxymethylcellulose (CMC)): 94 % of control | T/C (dose: 10.0 mg/kg/injection, schedule: Q01DX009 (ip), vehicle: carboxymethylcellulose (CMC)): 94 % of control | T/C (dose: 10.0 mg/kg/injection, schedule: Q04DX003 (ip), vehicle: carboxymethylcellulose (CMC)): 92 % of control | T/C (dose: 20.0 mg/kg/injection, schedule: Q01DX001 (ip), vehicle: carboxymethylcellulose (CMC)): 100 % of control | T/C (dose: 20.0 mg/kg/injection, schedule: Q01DX009 (ip), vehicle: carboxymethylcellulose (CMC)): 91 % of control | T/C (dose: 20.0 mg/kg/injection, schedule: Q04DX003 (ip), vehicle: carboxymethylcellulose (CMC)): 94 % of control | T/C (dose: 40.0 mg/kg/injection, schedule: Q01DX001 (ip), vehicle: carboxymethylcellulose (CMC)): 103 % of control | T/C (dose: 40.0 mg/kg/injection, schedule: Q04DX003 (ip), vehicle: carboxymethylcellulose (CMC)): 94 % of control
